For this assay, the target named is NA of A/Washington/01/2007 A(H3N2), WT (Influenza A virus, UniProt A7UPN3). Put plainly: biochemical.

This passage reports IC50 results from paper PMC10528385 (Antiviral research, 2023).

Molecules are shown by their SMILES.

Consider `CC(=O)N[C@H]1[C@H]([C@H](O)[C@H](O)CO)OC(C(=O)O)=C[C@@H]1N=C(N)N` [Zanamivir, zanamivir], for which the IC50 came to 1.1 ± 0.1 nM.

The term IC50 denotes the point on the concentration scale where inhibition reaches its midpoint. Read a low IC50 as greater potency in that assay.
